From patent US9505734B2, “Phenyl C-glucoside derivative containing deoxyglucose structure, preparation method and use thereof” (Tianjin Institute of Pharmaceutical Research, priority 2012, dated 2016)

Key:
[1] = target: hSGLT2 (Homo sapiens (Human), UniProt P31639); assay: IC50 of inhibition on SGLT2; type: cell-based; conditions: for IC50 / Seletivity IC50 (hSGLT1)/IC50 (hSGLT2): Table 3
[2] = system: SD rats (type 2 diabetes model); assay: model for rat urine glucose excretion (glucose-oxidase method); type: in vivo; conditions: type 2 diabetes model SD rats, 6 mg/kg intragastrically, glucose 2 g/kg at 0.5 h, urine 0-12 h
Method: The health SD rats are injected intraperitoneally with multiple low doses of streptozotocin for modeling (type 2 diabetes model) after feeding with high-fat and high-sucrose diet, and the content of blood glucose is measured before and after modeling. After the modeling successful, the rats for modeling are randomly divided (8 rats/group) into one blank group (administering the same volume of 0.5% CMC sodium solution) and several groups for compounds to be tested (6 mg/kg) according to the content of 24-hour urine glucose and the body weight. Rats in each group are fasted for 16 hours before experiment. The experimental rats are administered intragastrically with glucose (2 g/kg) at 0.5 h after intragastrical administration with compounds to be tested. The urine is collected at the time-period of 0-12 h after administration, and the urine glucose values are measured at each time-period by glucose-oxidase method.
The inhibiting activity of the cocrystal of I-D1-6 and L-proline on SGLT2 is measured by the model for rat urine glucose excretion.
The health SD rats are injected intraperitoneally with multiple low doses of streptozotocin for modeling (type 2 diabetes model) after feeding with high-fat and high-sucrose diet for one month, and the content of blood glucose is measured before and after modeling. After the modeling successful, the rats for modeling are randomly divided (8 rats/group) into one blank group (administering the same volume of 0.5% CMC sodium solution) and groups of tested compound (6 mg/kg) according to the content of 24-hour urine glucose and the body weight. Rats in each group are fasted for 16 hours before experiment. The experimental rats are administered intragastrically with the glucose (2 g/kg) at 0.5 h after intragastrical administration with the cocrystal of I-D1-6 and L-proline prepared in Example 138. The urine is collected at the time-period of 0-12 h after administration, and the urine glucose values are measured at each time-period by glucose-oxidase method.

[3] = influencing factors test: light stability; type: physicochemical; conditions: two-week stability test under light, higher temperature, higher humidity
From the text: The appearance, number of impurity and the amount of impurity (measured by HPLC) are compared with that of day 0.

[4] = system: Mice; conditions: mice, 10 mice/group, single intragastric dose 750 mg/kg, within one week;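 note: mice weighing 18–20 g, both sexes in equal proportion within each group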
Method: Mice (18-20 g) with equal numbers of male and female are divided into groups (10 mice/group), after normal feeding for 3 days, fasted for 12 hours, and then administered intragastrically with a single dose of 750 mg/kg compound respectively.

[5] = target: hSGLT1 (Homo sapiens (Human), UniProt P13866); assay: IC50 of inhibition on SGLT1; type: cell-based; conditions: Table 3
Chain of hSGLT1 (P13866 whole entry): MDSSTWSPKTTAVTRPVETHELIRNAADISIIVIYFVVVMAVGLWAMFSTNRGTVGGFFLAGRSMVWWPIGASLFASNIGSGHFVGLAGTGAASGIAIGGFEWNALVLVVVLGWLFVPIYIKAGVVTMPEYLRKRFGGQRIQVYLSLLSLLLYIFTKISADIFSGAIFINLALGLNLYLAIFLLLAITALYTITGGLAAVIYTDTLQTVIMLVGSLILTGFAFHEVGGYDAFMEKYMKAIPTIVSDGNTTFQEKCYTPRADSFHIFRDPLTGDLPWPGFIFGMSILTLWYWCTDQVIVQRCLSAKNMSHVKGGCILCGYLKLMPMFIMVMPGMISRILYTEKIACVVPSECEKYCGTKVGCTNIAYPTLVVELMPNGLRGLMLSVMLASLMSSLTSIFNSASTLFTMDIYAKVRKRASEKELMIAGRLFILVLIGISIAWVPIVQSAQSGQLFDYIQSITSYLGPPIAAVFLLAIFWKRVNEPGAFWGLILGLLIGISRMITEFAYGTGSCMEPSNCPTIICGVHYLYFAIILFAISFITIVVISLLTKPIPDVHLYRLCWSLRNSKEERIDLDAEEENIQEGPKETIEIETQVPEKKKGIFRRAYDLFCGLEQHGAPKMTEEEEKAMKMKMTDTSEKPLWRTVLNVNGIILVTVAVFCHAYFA

Chain of hSGLT2 (P31639 whole entry): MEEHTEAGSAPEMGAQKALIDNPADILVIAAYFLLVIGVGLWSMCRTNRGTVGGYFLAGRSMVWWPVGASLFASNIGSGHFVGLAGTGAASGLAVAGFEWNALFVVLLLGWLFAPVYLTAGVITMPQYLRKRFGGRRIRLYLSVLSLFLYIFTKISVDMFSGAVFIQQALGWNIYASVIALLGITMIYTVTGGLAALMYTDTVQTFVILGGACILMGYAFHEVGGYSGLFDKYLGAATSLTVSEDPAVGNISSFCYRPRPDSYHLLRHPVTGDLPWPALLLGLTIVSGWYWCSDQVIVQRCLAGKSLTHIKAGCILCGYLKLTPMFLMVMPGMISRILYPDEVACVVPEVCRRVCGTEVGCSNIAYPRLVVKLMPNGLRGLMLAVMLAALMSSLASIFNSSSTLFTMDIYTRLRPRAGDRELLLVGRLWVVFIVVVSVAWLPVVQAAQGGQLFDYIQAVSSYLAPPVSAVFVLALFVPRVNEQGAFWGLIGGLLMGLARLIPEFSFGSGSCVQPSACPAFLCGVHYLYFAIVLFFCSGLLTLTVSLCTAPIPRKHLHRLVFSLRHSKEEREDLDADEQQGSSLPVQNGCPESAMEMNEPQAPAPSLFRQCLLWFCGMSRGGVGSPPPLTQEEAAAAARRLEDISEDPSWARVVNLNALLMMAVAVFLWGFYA

CCOc1ccc(Cc2cc(C3OC(C)C(O)C(O)C3O)ccc2Cl)cc1 [cocrystal of I-D1-6 and L-proline, cocrystal of (1S)-1-[4-chloro-3-(4-ethoxybenzyl)phenyl]-1,6-dideoxy-D-glucose (I-D1-6) and L-proline]
Selectivity IC50 (hSGLT1)/IC50 (hSGLT2) ([1]; Table 4, cocrystal prepared in Example 138): 375
urine glucose production [2]: 912 mg urine glucose/200 g body weight
storage stability (in words) [3]: good storage stability
storage stability (in words) ([3]; listed as cocrystal): better storage stability

CCOc1ccc(Cc2cc([C@]34C[C@@H](O)[C@H](O)[C@](CO)(CO3)O4)ccc2Cl)cc1 [drawing 303]
Behaviors after administration with the compound to be tested (deaths) [4]: 2 dead

CCOc1ccc(Cc2cc([C@]34OC[C@](CO)(O3)[C@@H](O)C[C@H]4O)ccc2Cl)cc1 [drawing 304]
Behaviors after administration with the compound to be tested (deaths) [4]: 3 dead

Cc1ccc(C2OC(C)C(O)CC2O)cc1Cc1ccc(-c2ccc(F)cc2)s1 (stereo not drawn) [drawing 305]
Behaviors after administration with the compound to be tested (deaths) [4]: 0 dead

OCC1CCC(O)C(c2ccc(Cl)c(Cc3ccc(O[C@H]4CCOC4)cc3)c2)O1 (stereo partly drawn) [drawing 306]
Behaviors after administration with the compound to be tested (deaths) [4]: 2 dead

CCOc1ccc(Cc2cc(C3CCC(O)C(CO)S3)c(OC)cc2C)cc1 (stereo not drawn) [drawing 307]
Behaviors after administration with the compound to be tested (deaths) [4]: 0 dead

COc1ccc(Cc2cc(C3OC(C)C(O)C(O)C3O)ccc2Cl)cc1 (stereo not drawn) [drawing 308]
IC50 [1]: 3.3 nM
Seletivity IC50 (hSGLT1)/IC50 (hSGLT2) [1]: 26
IC50 [5]: 86 nM

CCOc1ccc(Cc2cc(C3OC(C)C(O)C(O)C3O)ccc2Cl)cc1 (stereo not drawn) [drawing 309]
IC50 [1]: 0.67 nM
Seletivity IC50 (hSGLT1)/IC50 (hSGLT2) [1]: 374
IC50 [5]: 251 nM

CCOc1ccc(Cc2cc(C3OC(C)C(O)C(O)C3O)ccc2C)cc1 (stereo not drawn) [drawing 310]
IC50 [1]: 7.8 nM
Seletivity IC50 (hSGLT1)/IC50 (hSGLT2) [1]: 24
IC50 [5]: 187 nM
